The values below are quoted from earlier work in patent publication US20030099724A1, “Compounds for prevention of diabetic retinopathy” (priority 2001, published 2003).

Data set [1] has as its system diabetic retinopathy. The following applies: rat models.

Each structure is given as a SMILES string.

As to `N=C(N)NN` [amino guanidine], the “progression of diabetic retinopathy” value in data set [1] was “retards the progression of diabetic retinopathy”.

With `CCOC(=O)C1=C(COCCN)NC(C)=C(C(=O)OC)C1c1ccccc1Cl` (stereo not drawn) [Amlodipine besylate, amlodipine besylate], the solubility in alcohol entry (alcohol) was “sparingly soluble”. In addition, the solubility in water entry (water) is listed as “slightly soluble”.
